Measured values from US20220073496A1, “NOVEL QUINOLINE DERIVATIVE INHIBITOR” (Nanjing Transthera Biosciences Co., Ltd., priority 2018, published 2022).

Experiments:
Ba/F3 LMNA-NTRK1 cells = target: T1, Ba/F3 LMNA-NTRK1 cells (Homo sapiens, UniProt P04629); experiment: Cell viability test (CTG), Ba/F3 LMNA-NTRK1; type: cell-based; conditions: NTRK1 wild type cell, 72 hours, read-out: IC50 Ba/F3 LMNA-NTRK1
T1 construct: fused on or other part: P02545 (Prelamin-A/C)
Method: (§1) Assay 8: Cell viability test of the compounds of the present invention
Ba/F3 LMNA-NTRK1 is an NTRK1 wild type cell;
(§2) Test substances: the compounds of the present invention, wherein the structures thereof were as described above.
(§3) Test instrument: SpectraMax multi-label microplate reader.
(§4) Each cell was inoculated in a 96-well plate and adherent cells were cultivated overnight. Different concentrations of the compounds (9 dose groups, 3.16 times DMSO serial dilution) were added to give the final concentration of 0.1-1000 nM, and the final DMSO content was 1‰. The negative control wells contained the medium containing 1‰ DMSO. The cells were incubated at 37° C. in a condition of 5% CO2 and 95% humidity for 72 hours for use. An equal volume of CTG reagent was added to each well, and the cells were lysed by shaking for 5 minutes on an orbital shaker, and incubated for 20 minutes at room temperature to stabilize the cold light signal. The cold light signal was read with a microplate reader. Data were analyzed using GraphPad Prism 5.0 software, and data were fitted using nonlinear S-curve regression to derive a dose-response curve and thereby calculate IC50 values.

H1299 cell pAxl = target: T2, H1299 cell pAxl (Homo sapiens, UniProt P30530); experiment: Inhibitory activity on the cell pAxl (Western Blot); type: cell-based; conditions: H1299 cells, compound 1.1, 3.3, 10, 30 nM, hGAS6 200 ng/mL
T2 construct: endogenous in cells; host or cells: H1299
T2 sequence (P30530 26-894): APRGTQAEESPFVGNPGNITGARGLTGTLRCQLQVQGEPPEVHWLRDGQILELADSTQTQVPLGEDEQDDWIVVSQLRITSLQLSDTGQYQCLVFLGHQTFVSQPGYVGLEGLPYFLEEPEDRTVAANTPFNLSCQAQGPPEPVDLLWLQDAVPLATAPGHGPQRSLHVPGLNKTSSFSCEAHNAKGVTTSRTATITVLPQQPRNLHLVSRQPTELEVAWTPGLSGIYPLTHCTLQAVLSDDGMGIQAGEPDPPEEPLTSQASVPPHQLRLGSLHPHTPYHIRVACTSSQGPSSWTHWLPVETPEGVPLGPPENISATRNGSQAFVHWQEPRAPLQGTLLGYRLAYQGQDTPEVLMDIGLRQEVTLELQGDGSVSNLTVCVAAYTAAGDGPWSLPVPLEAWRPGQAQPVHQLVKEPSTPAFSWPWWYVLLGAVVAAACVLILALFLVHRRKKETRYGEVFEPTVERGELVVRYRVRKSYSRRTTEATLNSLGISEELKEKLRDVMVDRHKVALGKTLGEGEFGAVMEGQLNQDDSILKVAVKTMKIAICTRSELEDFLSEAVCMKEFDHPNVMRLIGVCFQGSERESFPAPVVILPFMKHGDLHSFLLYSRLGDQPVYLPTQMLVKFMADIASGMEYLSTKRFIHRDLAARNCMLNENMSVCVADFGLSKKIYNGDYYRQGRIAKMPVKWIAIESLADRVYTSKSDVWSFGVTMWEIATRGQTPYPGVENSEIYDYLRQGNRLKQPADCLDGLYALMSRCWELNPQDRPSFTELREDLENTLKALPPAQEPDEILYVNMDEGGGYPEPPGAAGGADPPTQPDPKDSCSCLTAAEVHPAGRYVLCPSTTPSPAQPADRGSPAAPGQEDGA
Method: Assay 5: Test for Inhibitory Activities of the Compounds of the Present Invention on the Cell pAxl
H1299 is a non-small cell lung cancer cell.
as §2
Test equipment: protein electrophoresis apparatus (manufactured by Bio Rad), transfer unit (manufactured by Bio Rad), exposure unit (manufactured by Tanon), CO2, cell incubator (manufactured by Thermo).
The H1299 cells were inoculated in a 6-well plate (containing 10% FBS 1640 medium, 5×10^5 cells per well), and adherent cells were cultivated at 37° C. in a 5% CO2 condition for 18 hours. The cells were starved overnight. Different concentrations of compounds were added. The final compound concentrations were 1.1, 3.3, 10, and 30 nM, and the final DMSO content was 1‰. The negative control wells contained the medium containing 1‰ DMSO. After incubating at 37° C. in a 5% CO2 condition for 60 minutes, hGAS6 (R&D, final concentration 200 ng/mL) was added to each well. After further incubating for 60 minutes, the cell total protein was extracted for Western Blot and the […] values were calculated using GraphPad 5.0 software. The inhibitory activity of the compound on the cell pAxl was examined.

[1] = target: T3, Ba/F3 LMNA-NTRK1 G667C cells (Homo sapiens, UniProt P04629, G667C, cells depend on it); experiment: Cell viability test (CTG), Ba/F3 LMNA-NTRK1 G667C; type: cell-based; conditions: NTRK1 gene mutant cell, 72 hours, read-out: IC50 Ba/F3 LMNA-NTRK1 G667C
T3 construct: Ba/F3 LMNA-NTRK1 G667C and Ba/F3 LMNA-NTRK1-V573M are NTRK1 gene mutant cells; fused on or other part: P02545 (Prelamin-A/C)
Text: as §1
Ba/F3 LMNA-NTRK1 G667C and Ba/F3 LMNA-NTRK1-V573M are NTRK1 gene mutant cells.
as §2, §3, §4

TrkB (h) = target: T4, TrkB (h) (Homo sapiens, UniProt Q16620); experiment: Enzymatic activity test, TrkB (h); type: biochemical; conditions: 10 μM [γ-33P]-ATP, 40 minutes, room temperature
T4 construct: purchased
Method: Assay 4: Enzymatic Activity Test of the Compound of the Present Invention
Test substances: the compounds of the present invention, wherein the structures and preparations thereof were as described above.
Preparation of the Compound Stock Solution
The compound was dissolved in 100% DMSO to prepare a stock solution with a maximum concentration of 500 μM.
Preparation of the Compound Working Solution
The compound stock solution was diluted to final concentrations of 500, 150, 50, 15. 5, 1.5, 0.5, 0.15 and 0.05 μM to become the compound working solutions (50×).
Preparation of Different Enzyme Reaction Solutions
The TrkB (h) enzyme was dissolved in 8 mM MOPS (pH 7.0), 0.2 mM EDTA, and 0.1 mg/mL poly(Glu, Tyr) 4:1 to prepare an enzyme solution having a final concentration of 3.1 nM. The enzymatic reaction was activated by using 10 mM magnesium acetate and 10 μM [γ-^33P]-ATP to form an Mg/ATP mixed solution,
In a 384-well plate, the compound working solution was added to final concentrations of 10000, 3000, 1000, 300, 100, 30, 10, 3, and 1 nM. Then different enzyme reaction solutions prepared according to the above conditions were added. The incubation was carried out for 40 minutes at room temperature. The test was terminated by the addition of a 0.5% phosphoric acid solution. 10 μL of the reaction solution was taken and dropped to the P30 filter paper. The filter paper was washed 4 times with 0.425% phosphoric acid solution and once with methanol, and then placed on a scintillation counter. The […] IC50 values were calculated using GraphPad 5.0 software.

T1 sequence (P04629 whole entry, change not shown, the tested form may be a part): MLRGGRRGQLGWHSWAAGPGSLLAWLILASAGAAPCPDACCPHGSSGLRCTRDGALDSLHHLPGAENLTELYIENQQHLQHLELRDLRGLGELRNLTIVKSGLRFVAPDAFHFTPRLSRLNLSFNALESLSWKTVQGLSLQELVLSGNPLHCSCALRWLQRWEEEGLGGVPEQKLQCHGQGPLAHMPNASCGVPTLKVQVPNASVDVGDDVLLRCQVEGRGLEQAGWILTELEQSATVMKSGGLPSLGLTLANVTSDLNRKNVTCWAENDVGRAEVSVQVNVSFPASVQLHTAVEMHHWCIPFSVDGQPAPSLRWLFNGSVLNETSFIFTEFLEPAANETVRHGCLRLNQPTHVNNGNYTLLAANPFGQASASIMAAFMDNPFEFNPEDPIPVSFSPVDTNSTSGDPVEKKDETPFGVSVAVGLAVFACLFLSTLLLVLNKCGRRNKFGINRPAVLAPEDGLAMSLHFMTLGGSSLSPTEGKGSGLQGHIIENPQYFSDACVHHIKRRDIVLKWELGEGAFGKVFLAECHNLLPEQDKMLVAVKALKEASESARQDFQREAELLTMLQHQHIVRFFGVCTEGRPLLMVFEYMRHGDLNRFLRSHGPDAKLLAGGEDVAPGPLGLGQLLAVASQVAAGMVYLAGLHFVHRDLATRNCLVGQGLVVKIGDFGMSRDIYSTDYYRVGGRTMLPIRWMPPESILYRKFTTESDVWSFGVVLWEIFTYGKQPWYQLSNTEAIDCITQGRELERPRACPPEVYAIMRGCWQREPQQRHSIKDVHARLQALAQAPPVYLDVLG
T4 sequence (Q16620 32-822): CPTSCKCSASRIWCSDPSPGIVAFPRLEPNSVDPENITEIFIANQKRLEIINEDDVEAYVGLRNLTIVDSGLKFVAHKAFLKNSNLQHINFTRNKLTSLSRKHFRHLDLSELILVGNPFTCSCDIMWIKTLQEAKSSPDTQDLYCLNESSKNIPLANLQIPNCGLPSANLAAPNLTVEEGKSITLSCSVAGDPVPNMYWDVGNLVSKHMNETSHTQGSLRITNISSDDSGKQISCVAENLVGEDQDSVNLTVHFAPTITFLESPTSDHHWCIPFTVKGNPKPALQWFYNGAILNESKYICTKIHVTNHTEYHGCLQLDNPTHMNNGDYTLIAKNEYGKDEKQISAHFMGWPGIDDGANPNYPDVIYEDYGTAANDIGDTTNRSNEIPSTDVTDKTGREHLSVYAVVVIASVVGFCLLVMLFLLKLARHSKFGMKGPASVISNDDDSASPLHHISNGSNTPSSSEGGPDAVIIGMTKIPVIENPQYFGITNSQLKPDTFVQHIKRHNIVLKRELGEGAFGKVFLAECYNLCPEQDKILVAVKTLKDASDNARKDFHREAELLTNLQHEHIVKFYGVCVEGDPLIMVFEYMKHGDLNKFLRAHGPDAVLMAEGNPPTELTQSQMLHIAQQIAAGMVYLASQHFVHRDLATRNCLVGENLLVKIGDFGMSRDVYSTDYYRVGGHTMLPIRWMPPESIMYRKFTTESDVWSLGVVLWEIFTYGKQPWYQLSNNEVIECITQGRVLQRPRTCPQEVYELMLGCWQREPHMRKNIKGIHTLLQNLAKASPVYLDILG
T3 sequence (P04629 whole entry G667C, the tested form may be a part): as the sequence (P04629 whole entry, change not shown, the tested form may be a part) above, with G667C counted along it

IC50 (H1299 cell pAxl) | IC50 (TrkB (h)) | SMILES | GI50 (Ba/F3 LMNA-NTRK1 cells) | GI50 [1]
< 1.1 nM | 3 nM | COc1cc2nccc(Oc3ncc(NC(=O)c4nn(C(C)C)cc(-c5ccc(F)cc5)c4=O)cn3)c2cc1OC [Compound 34, N-(2-((6,7-dimethoxyquinolin-4-yl)oxy)pyrimidine-5-yl)-5-para-fluorophenyl-1-isopropyl-4-oxo-1,4-dihydropyridazine-3-carboxamide] | 14.3 nM | 0.68 nM
3.3 nM | 11 nM | COc1cc2nccc(Oc3ccc(NC(=O)c4cn(C(C)C)nc(-c5ccc(F)cc5)c4=O)cn3)c2cc1OC [Compound 38, N-(6-((6,7-dimethoxyquinolin-4-yl)oxy)pyridin-3-yl)-6-para-fluorophenyl-2-isopropyl-5-oxo-2,5-dihydropyridazine-4-carboxamide] | 55.1 nM | 5.7 nM
3.3 nM | 17 nM | COc1cc2nccc(Oc3cnc(NC(=O)c4cn(C(C)C)nc(-c5ccc(F)cc5)c4=O)nc3)c2cc1OC [Compound 39, N-(5-((6,7-dimethoxyquinolin-4-yl)oxy)pyrimidine-2-yl)-6-(4-fluorophenyl)-2-isopropyl-5-oxo-2,5-dihydropyridazine-4-carboxamide] | 42.4 nM | 8.1 nM
10 nM | 6 nM | COc1cc2nccc(Oc3ncc(NC(=O)c4cn(C(C)C)nc(-c5ccc(F)cc5)c4=O)cn3)c2cc1OC [Compound 40, N-(2-((6,7-dimethoxyquinolin-4-yl)oxy)pyrimidine-5-yl)-6-(4-fluorophenyl)-2-isopropyl-5-oxo-2,5-dihydropyridazine-4-carboxamide] | 52.1 nM | 9.1 nM
